Experimental data: ChEMBL document CHEMBL4334471, “Discovery of 1,8-disubstituted-[1,2,3]triazolo[4,5-c]quinoline derivatives as a new class of Hippo signaling pathway inhibitors” (Bioorg Med Chem Lett, 2019)

Tests used:
[1] = biological target: Serine/threonine-protein kinase B-raf (Homo sapiens) (UniProt P15056); test: Inhibition of recombinant full length human B-Raf (416 to end residues) assessed as residual activity at 10 uM using myelin basic protein substrate incubated for 40 mins in presence of [gamma-33ATP] by scintillation counting based radiometry assay relative to control
[2] = biological target: Calcium/calmodulin-dependent protein kinase type II subunit delta (Homo sapiens) (UniProt Q13557); test: Inhibition of recombinant full length human CaMK2delta assessed as residual activity at 10 uM using […] incubated for 40 mins in presence of [gamma-33ATP] by scintillation counting based radiometry assay relative to control
Sequence of Calcium/calmodulin-dependent protein kinase type II subunit delta (Homo sapiens) (Q13557 whole entry): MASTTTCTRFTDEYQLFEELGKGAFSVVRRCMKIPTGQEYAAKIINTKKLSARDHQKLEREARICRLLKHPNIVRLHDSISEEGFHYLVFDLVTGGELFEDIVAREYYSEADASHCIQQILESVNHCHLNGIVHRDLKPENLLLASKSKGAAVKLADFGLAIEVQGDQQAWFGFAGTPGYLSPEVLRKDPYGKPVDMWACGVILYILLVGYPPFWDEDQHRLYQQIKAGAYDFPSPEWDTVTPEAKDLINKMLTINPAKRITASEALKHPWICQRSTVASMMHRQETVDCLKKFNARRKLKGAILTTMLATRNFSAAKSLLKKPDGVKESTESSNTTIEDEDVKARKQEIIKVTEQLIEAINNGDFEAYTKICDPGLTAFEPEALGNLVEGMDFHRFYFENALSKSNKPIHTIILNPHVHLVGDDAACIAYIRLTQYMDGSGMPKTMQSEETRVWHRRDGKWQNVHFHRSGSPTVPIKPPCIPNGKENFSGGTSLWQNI

[3] = biological target: Casein kinase 2 (Homo sapiens) (UniProt P67870+P68400+P19784+Q8NEV1); test: Inhibition of recombinant human CK2 assessed as residual activity at 10 uM in presence of [gamma-33ATP] by scintillation counting based radiometry assay relative to control; type: protein assay
[4] = biological target: Myotonin-protein kinase (Homo sapiens) (UniProt Q09013); test: Inhibition of recombinant human DMPK (1 to 549 residues) assessed as residual activity at 10 uM using KKSRGDYMTMQIG as substrate at 40 mins in presence of [gamma-33ATP] by scintillation counting based radiometry assay relative to control
[5] = biological target: Dual specificity tyrosine-phosphorylation-regulated kinase 2 (Homo sapiens) (UniProt Q92630); test: Inhibition of recombinant human DYRK2 assessed as residual activity at 10 uM using casein as substrate at 40 mins in presence of [gamma-33ATP] by scintillation counting based radiometry assay relative to control
[6] = biological target: Dual specificity tyrosine-phosphorylation-regulated kinase 3 (Homo sapiens) (UniProt O43781); test: Inhibition of recombinant human DYRK3 assessed as residual activity at 10 uM using RRRFRPASPLRGPP as substrate at 40 mins in presence of [gamma-33ATP] by scintillation counting based radiometry assay relative to control
Sequence of Dual specificity tyrosine-phosphorylation-regulated kinase 3 (Homo sapiens) (O43781 whole entry, the tested form may be a part): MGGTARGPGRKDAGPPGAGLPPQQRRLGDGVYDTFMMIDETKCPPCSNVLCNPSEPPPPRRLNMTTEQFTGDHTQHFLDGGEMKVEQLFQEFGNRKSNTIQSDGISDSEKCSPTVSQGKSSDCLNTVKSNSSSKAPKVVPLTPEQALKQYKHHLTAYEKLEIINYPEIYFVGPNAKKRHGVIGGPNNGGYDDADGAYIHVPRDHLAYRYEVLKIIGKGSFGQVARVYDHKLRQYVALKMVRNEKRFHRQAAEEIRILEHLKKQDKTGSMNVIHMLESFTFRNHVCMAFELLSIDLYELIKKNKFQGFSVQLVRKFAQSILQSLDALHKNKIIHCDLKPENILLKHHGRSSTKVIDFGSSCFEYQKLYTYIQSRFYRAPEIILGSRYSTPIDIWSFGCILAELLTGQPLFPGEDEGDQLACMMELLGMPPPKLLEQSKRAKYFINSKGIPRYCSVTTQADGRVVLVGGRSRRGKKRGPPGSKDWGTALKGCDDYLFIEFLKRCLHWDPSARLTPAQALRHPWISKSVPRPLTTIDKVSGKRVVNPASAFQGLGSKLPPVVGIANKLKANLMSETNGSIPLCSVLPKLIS

[7] = biological target: Ephrin type-A receptor 4 (Homo sapiens) (UniProt P54764); test: Inhibition of recombinant human EphA4 (601 to 892 residues) assessed as residual activity at 10 uM using poly(Glu, Tyr) 4:1 as substrate at 40 mins in presence of [gamma-33ATP] by scintillation counting based radiometry assay relative to control
Sequence of Ephrin type-A receptor 4 (Homo sapiens) (P54764 whole entry, the tested form may be a part): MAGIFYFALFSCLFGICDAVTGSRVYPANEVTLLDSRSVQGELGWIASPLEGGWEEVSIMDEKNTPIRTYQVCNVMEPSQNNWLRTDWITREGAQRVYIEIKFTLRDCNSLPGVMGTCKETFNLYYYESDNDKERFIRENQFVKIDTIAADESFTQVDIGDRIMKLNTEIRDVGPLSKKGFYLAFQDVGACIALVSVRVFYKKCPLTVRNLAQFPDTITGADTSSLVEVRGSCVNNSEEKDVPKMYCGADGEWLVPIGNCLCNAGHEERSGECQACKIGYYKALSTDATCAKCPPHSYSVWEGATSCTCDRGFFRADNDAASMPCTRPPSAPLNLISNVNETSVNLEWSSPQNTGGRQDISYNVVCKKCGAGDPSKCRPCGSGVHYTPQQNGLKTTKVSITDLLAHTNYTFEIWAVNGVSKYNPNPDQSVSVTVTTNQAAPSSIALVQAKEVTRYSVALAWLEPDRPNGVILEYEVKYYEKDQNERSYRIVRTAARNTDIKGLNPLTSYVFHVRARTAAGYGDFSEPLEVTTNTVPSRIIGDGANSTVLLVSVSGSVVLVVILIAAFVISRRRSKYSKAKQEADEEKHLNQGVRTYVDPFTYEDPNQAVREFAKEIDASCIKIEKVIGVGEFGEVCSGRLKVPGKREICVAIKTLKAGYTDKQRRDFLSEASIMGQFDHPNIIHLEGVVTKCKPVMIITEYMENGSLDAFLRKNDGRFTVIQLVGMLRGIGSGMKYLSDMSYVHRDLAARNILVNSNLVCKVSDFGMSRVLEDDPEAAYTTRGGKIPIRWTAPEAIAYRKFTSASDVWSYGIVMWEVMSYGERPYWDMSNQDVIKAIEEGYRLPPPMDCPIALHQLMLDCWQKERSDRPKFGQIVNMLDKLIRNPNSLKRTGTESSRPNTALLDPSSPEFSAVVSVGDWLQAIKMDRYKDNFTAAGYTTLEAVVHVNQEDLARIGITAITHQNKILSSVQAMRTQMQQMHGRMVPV

[8] = biological target: Ephrin type-A receptor 7 (Homo sapiens) (UniProt Q15375); test: Inhibition of recombinant human EphA7 (613 to 909 residues) assessed as residual activity at 10 uM using KTFCGTPEYLAPEVRREPRILSEEEQEMFRDFDYIADWC as substrate at 40 mins in presence of [gamma-33ATP] by scintillation counting based radiometry assay relative to control
[9] = biological target: Tyrosine-protein kinase Fgr (Homo sapiens) (UniProt P09769); test: Inhibition of recombinant human FGR (2 to end residues) assessed as residual activity at 10 uM using poly(Glu, Tyr) 4:1 as substrate at 40 mins in presence of [gamma-33ATP] by scintillation counting based radiometry assay relative to control
[10] = biological target: Beta-adrenergic receptor kinase 1 (Homo sapiens) (UniProt P25098); test: Inhibition of recombinant full length human GRK2 assessed as residual activity at 10 uM using casein as substrate at 40 mins in presence of [gamma-33ATP] by scintillation counting based radiometry assay relative to control
[11] = biological target: Homeodomain-interacting protein kinase 4 (Homo sapiens) (UniProt Q8NE63); test: Inhibition of human HIPK4 assessed as residual activity at 10 uM using RRRFRPASPLRGPPK as substrate after 40 mins by [gamma-33ATP] radiometric assay relative to control
[12] = biological target: Tyrosine-protein kinase JAK1 (Homo sapiens) (UniProt P23458); test: Inhibition of human JAK1 (866 to end residues) assessed as residual activity at 10 uM using GEEPLYWSFPAKKK as substrate after 40 mins by [gamma-33ATP] radiometric assay relative to control
[13] = biological target: Tyrosine-protein kinase Lck (Homo sapiens) (UniProt P06239); test: Inhibition of recombinant full length human LCK assessed as residual activity at 10 uM using KVEKIGEGTYGVV as substrate after 40 mins in presence of [gamma-33ATP] by scintillation counting based radiometry assay relative to control
[14] = biological target: Leucine-rich repeat serine/threonine-protein kinase 2 (Homo sapiens) (UniProt Q5S007); test: Inhibition of recombinant human LRRK2 (970 to end residues) assessed as residual activity at 10 uM using RLGRDKYKTLRQI as substrate after 40 mins in presence of [gamma-33ATP] by scintillation counting based radiometry assay relative to control
[15] = biological target: Leukocyte tyrosine kinase receptor (Homo sapiens) (UniProt P29376); test: Inhibition of recombinant human LTK (450 to end residues) assessed as residual activity at 10 uM using GEEPLYWSFPAKK as substrate after 40 mins in presence of [gamma-33ATP] by scintillation counting based radiometry assay relative to control
Sequence of Leukocyte tyrosine kinase receptor (Homo sapiens) (P29376 whole entry): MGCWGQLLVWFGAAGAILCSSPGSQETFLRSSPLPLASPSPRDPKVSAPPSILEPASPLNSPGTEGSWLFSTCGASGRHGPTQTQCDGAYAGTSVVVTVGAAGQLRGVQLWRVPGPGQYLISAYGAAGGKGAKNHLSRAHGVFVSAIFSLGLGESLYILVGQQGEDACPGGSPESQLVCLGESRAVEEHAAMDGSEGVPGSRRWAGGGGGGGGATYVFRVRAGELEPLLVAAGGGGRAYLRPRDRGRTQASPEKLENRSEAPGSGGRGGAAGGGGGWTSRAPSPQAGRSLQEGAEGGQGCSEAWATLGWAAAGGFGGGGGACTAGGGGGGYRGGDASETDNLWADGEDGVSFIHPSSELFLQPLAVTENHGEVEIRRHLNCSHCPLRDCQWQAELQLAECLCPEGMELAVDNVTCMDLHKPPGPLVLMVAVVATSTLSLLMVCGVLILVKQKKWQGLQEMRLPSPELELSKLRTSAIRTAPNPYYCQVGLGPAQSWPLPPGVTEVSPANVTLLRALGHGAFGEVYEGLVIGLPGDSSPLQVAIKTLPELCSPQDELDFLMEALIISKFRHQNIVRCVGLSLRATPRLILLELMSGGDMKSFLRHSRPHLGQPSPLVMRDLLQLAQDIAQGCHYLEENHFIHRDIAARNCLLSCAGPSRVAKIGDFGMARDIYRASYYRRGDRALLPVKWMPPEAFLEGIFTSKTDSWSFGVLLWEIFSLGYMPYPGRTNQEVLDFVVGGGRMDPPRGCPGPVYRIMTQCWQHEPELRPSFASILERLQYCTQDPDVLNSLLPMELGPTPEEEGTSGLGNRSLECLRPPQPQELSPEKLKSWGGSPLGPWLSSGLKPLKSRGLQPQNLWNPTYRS

[16] = biological target: Serine/threonine-protein kinase PAK 6 (Homo sapiens) (UniProt Q9NQU5); test: Inhibition of recombinant human PAK6 (382 to end residues) assessed as residual activity at 10 uM using RRRLSFAEPG as substrate measured after 40 mins in presence of [gamma33P]ATP by scintillation counting based radiometry assay relative to control
[17] = biological target: Protein kinase C beta type (Homo sapiens) (UniProt P05771); test: Inhibition of recombinant human PKCbeta1 (2 to end residues) assessed as residual activity at 10 uM using histone H1 as substrate incubated for 40 mins in presence of [gamma33P]ATP by scintillation counting based radiometry assay relative to control
Sequence of Protein kinase C beta type (Homo sapiens) (P05771 2-671 limits assumed): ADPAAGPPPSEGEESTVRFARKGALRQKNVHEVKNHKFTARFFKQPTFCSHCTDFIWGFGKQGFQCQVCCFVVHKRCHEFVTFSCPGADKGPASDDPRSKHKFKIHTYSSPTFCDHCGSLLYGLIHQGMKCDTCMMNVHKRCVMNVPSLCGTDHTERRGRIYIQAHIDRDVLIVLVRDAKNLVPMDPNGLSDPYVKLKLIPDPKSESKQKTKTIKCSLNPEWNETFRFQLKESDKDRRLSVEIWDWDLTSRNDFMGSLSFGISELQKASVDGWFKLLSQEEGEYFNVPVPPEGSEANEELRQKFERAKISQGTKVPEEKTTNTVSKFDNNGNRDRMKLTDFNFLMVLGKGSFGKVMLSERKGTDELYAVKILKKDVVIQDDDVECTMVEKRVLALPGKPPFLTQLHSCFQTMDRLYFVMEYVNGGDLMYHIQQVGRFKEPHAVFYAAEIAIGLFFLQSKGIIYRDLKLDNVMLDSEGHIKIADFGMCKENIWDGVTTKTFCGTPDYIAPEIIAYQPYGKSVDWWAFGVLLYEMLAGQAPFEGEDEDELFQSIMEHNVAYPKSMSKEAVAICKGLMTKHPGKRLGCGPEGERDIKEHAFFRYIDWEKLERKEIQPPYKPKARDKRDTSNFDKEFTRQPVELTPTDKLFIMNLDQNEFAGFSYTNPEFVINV

[18] = biological target: Mitogen-activated protein kinase 12 (Homo sapiens) (UniProt P53778); test: Inhibition of recombinant human full length SAPK3 assessed as residual activity at 10 uM using myelin basic protein as substrate incubated for 40 mins in presence of [gamma33P]ATP by scintillation counting based radiometry assay relative to control
Sequence of Mitogen-activated protein kinase 12 (Homo sapiens) (P53778 whole entry): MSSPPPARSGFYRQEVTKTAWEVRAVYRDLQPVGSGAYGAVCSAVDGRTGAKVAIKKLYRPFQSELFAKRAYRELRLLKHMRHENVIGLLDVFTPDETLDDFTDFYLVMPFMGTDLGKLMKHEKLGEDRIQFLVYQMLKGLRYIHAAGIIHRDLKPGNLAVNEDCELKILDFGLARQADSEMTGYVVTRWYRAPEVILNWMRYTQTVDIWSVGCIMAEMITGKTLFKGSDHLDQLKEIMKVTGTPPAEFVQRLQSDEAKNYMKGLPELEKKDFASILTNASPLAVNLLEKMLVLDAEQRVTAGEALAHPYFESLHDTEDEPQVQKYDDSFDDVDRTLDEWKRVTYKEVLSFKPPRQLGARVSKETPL

[19] = biological target: Serine/threonine-protein kinase tousled-like 2 (Homo sapiens) (UniProt Q86UE8); test: Inhibition of recombinant human TLK2 (387 to end residues) assessed as residual activity at 10 uM using casein as substrate incubated for 40 mins in presence of [gamma33P]ATP by scintillation counting based radiometry assay relative to control
Sequence of Serine/threonine-protein kinase tousled-like 2 (Homo sapiens) (Q86UE8 whole entry, looked up): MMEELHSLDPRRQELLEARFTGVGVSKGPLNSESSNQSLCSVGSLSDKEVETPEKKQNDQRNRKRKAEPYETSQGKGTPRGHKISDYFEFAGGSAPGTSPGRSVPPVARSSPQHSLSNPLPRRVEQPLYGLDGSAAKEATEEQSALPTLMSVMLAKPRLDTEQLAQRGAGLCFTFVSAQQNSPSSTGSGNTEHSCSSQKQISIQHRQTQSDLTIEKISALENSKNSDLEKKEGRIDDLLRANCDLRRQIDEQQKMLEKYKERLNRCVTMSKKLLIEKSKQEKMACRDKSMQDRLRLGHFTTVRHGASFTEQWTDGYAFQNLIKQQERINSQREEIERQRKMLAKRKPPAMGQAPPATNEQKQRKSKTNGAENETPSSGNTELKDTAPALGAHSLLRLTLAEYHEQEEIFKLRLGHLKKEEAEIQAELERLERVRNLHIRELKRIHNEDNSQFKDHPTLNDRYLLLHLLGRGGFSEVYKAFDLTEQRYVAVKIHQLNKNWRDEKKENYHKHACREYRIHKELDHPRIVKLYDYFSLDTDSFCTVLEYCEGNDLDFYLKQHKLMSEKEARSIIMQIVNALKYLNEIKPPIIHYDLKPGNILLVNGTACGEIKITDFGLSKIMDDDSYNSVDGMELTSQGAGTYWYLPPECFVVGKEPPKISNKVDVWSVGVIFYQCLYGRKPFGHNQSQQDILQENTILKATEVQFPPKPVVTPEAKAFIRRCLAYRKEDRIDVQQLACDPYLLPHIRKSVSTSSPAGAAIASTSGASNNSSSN

[20] = biological target: High affinity nerve growth factor receptor (Homo sapiens) (UniProt P04629); test: Inhibition of recombinant human TRKA (440 to end residues) assessed as residual activity at 10 uM using KKKSPGEYVNIEF as substrate incubated for 40 mins in presence of [gamma33P]ATP by scintillation counting based radiometry assay relative to control
[21] = biological target: Tyrosine-protein kinase Yes (Homo sapiens) (UniProt P07947); test: Inhibition of recombinant full-length human Yes assessed as residual activity at 10 uM using poly(Glu, Tyr) 4:1 as substrate incubated for 40 mins in presence of [gamma33P]ATP by scintillation counting based radiometry assay relative to control
Homo sapiens = species on record: Homo sapiens; test: Inhibition of recombinant full-length human ATR/ATRIP M211T mutant assessed as residual activity at 10 uM using GST-cMyc-p53 as substrate measured after 40 mins by fluorescence assay relative to control

## C[C@@H](c1ccccc1)n1nnc2cnc3ccc(-c4cnc5[nH]ccc5c4)cc3c21
[1]
  Activity: 73%
[2]
  Activity: 68%
[3]
  Activity: 82%
[4]
  Activity: 89%
[5]
  Activity: 94%
[6]
  Activity: 79%
[7]
  Activity: 81%
[8]
  Activity: 86%
[9]
  Activity: 5%
[10]
  Activity: 92%
[11]
  Activity: 57%
[12]
  Activity: 47%
[13]
  Activity: 6%
[14]
  Activity: 11%
[15]
  Activity: 39%
[16]
  Activity: 74%
[17]
  Activity: 110%
[18]
  Activity: 91%
[19]
  Activity: 106%
[20]
  Activity: 5%
[21]
  Activity: 3%
Homo sapiens
  Activity: 40%
